Reference: ChEMBL document CHEMBL2311302, “Synthesis and evaluation of 5'-modified thymidines and 5-hydroxymethyl-2'-deoxyuridines as Mycobacterium tuberculosis thymidylate kinase inhibitors” (Bioorg Med Chem, 2013)
The source made the active and inactive calls. The calls are words filed in the database; no cut-off is given here.

What was measured:
[1] = molecular target: T1, Thymidylate kinase (Mycobacterium tuberculosis) (UniProt P9WKE1); experiment: Inhibition of Mycobacterium tuberculosis thymidine monophosphate kinase at 2.4 mM by enzyme-coupling based spectrophotometric assay
T1 sequence (whole entry): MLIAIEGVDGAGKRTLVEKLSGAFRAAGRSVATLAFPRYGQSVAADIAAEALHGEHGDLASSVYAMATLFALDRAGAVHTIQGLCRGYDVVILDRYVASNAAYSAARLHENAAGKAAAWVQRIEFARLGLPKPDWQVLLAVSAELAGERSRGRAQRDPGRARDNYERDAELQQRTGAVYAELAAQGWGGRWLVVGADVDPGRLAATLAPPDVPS

[2] = molecular target: T1, Thymidylate kinase (Mycobacterium tuberculosis); experiment: Inhibition of Mycobacterium tuberculosis thymidine monophosphate kinase at 2.6 mM by enzyme-coupling based spectrophotometric assay
Thymidylate kinase = molecular target: T2, Thymidylate kinase (Mycobacterium tuberculosis, UniProt P9WKE1); experiment: Inhibition of Mycobacterium tuberculosis thymidine monophosphate kinase by enzyme-coupling based spectrophotometric assay
T2 sequence (P9WKE1 whole entry): T1 sequence (whole entry)

Row | Compound | Ki (Thymidylate kinase) | also measured
1 | O=c1[nH]c(=O)n([C@H]2C[C@H](O)[C@@H](CCc3nnn[nH]3)O2)cc1CO |  | inhibition [1]: inactive
2 | N#CCC[C@H]1O[C@@H](n2cc(CO)c(=O)[nH]c2=O)C[C@@H]1O |  | inhibition [2]: inactive
3 | Cc1cn([C@H]2C[C@H](O)[C@@H](CCC#N)O2)c(=O)[nH]c1=O | 48 µM | 
4 | Cc1cn([C@H]2C[C@H](O)[C@@H](CCc3nnn[nH]3)O2)c(=O)[nH]c1=O | 70 µM | 
5 | Cc1cn([C@H]2C[C@H](O)[C@@H](CCS(C)(=O)=O)O2)c(=O)[nH]c1=O | 340 µM | 
6 | CNS(=O)(=O)CC[C@H]1O[C@@H](n2cc(C)c(=O)[nH]c2=O)C[C@@H]1O | 240 µM | 
